Source: ChEMBL document CHEMBL2331344, “Pharmacological chaperones as therapeutics for lysosomal storage diseases” (J Med Chem, 2013)
Each block holds one molecule with its values, some of them ahead of it. Non-standard residues stand in square brackets, D forms with d. Residues, ends and D or L forms follow the SMILES beside them. *: point of attachment. Palmitoyl = CCCCCCCCCCCCCCCC(=O)*; Dap = NC[C@H](N)C(=O)O

Legend:
[1] = Non competitive inhibition of beta hexosaminidase (unknown origin); design: species or system Homo sapiens
Homo sapiens [2] = species: Homo sapiens; assay: Induction of beta hexosaminidase activity in patient derived cell-line at 50 uM relative to control
Homo sapiens [3] = species: Homo sapiens; assay: Induction of beta-hexosaminidase S activity in fibroblasts derived from ISD patient at 100 uM after 5 days by Western blotting analysis relative to control
[4] = test system: T1, Lysosomal acid glucosylceramidase (Homo sapiens), P04062 [N409S]; assay: Induction of beta glucosidase N370S mutant activity in primary skin fibroblast derived from Gaucher disease patient after 5 days relative to control
T1 sequence (whole entry): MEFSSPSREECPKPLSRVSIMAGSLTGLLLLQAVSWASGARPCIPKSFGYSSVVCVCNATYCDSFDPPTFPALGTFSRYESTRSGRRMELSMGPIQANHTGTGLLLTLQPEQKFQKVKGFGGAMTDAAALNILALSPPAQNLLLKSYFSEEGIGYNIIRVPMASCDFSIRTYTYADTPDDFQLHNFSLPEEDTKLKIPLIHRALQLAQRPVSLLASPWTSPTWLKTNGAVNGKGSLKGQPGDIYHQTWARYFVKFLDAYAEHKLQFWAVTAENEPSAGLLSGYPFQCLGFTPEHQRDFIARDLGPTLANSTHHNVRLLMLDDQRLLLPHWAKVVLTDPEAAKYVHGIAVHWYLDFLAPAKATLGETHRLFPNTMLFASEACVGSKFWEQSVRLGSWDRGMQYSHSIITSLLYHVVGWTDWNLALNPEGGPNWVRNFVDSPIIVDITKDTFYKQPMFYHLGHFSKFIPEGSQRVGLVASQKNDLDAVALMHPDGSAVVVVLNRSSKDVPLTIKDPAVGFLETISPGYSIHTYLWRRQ

Homo sapiens [5] = species: Homo sapiens; assay: Induction of beta glucosidase G202R mutant activity in primary skin fibroblast derived from patient after 5 days relative to control
Beta-glucosidase = biological target: T2, Beta-glucosidase (Homo sapiens, UniProt Q9HCG7); assay: Inhibition of beta glucosidase (unknown origin)
T2 sequence (Q9HCG7 whole entry): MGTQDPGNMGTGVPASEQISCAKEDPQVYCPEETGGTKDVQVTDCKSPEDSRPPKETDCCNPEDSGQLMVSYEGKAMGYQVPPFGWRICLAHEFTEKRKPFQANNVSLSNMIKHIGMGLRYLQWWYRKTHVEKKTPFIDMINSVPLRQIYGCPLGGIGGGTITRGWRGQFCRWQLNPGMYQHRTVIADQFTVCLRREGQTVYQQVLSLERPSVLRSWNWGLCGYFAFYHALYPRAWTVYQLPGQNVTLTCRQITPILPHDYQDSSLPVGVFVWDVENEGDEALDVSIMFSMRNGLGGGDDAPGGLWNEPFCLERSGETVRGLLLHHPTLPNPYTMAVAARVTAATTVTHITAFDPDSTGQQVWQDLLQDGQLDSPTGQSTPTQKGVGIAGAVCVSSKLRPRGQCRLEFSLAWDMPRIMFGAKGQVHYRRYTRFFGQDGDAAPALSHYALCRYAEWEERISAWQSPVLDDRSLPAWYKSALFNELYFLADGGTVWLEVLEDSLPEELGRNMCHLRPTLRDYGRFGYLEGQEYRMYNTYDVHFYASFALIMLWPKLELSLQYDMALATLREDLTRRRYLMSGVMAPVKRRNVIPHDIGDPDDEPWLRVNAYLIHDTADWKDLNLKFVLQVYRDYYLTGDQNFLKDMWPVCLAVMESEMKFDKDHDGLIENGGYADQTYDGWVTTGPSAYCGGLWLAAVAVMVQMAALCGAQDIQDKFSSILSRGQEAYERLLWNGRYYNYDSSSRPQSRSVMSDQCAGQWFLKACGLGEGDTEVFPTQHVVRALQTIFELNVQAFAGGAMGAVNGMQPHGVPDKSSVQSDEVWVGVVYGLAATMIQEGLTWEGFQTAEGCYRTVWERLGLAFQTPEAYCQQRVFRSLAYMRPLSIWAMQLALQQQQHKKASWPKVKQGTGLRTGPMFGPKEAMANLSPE

[6] = test system: T1, Lysosomal acid glucosylceramidase (Homo sapiens), P04062 [N409S]; assay: Induction of beta glucosidase N370S mutant activity in cells derived from Gaucher disease patient at 20 uM relative to control
[7] = test system: T1, Lysosomal acid glucosylceramidase (Homo sapiens), P04062 [N409S]; assay: Induction of beta glucosidase N370S mutant activity in primary skin fibroblast derived from Gaucher disease patient at 20 uM after 5 days relative to control
Mus musculus [8] = assay: Induction of beta glucosidase L444P mutant in mouse brain administered with drinking water measured after 4 weeks relative to control; format: functional
Mus musculus [9] = assay: Induction of human alpha galactosidase A R301Q mutant activity expressed in C57BL/6 transgenic alpha galactosidase A knockout mouse at 3 mg/kg/day, po administered for 2 weeks measured in spleen relative to control; format: functional
Mus musculus [10] = assay: Induction of human alpha galactosidase A R301Q mutant activity expressed in C57BL/6 transgenic alpha galactosidase A knockout mouse at 30 mg/kg/day, po administered for 2 weeks measured in liver relative to control; format: functional
Mus musculus [11] = assay: Induction of human alpha galactosidase A R301Q mutant activity expressed in C57BL/6 transgenic alpha galactosidase A knockout mouse at 3 mg/kg/day, po administered for 2 weeks measured in kidney relative to control; format: functional
Mus musculus [12] = assay: Induction of human alpha galactosidase A R301Q mutant activity expressed in C57BL/6 transgenic alpha galactosidase A knockout mouse at 30 mg/kg/day, po administered for 2 weeks measured in heart relative to control; format: functional
Mus musculus [13] = assay: Induction of in human alpha galactosidase A R301Q mutant activity expressed in C57BL/6 transgenic alpha galactosidase A knockout mouse at 30 mg/kg/day, po administered for 2 weeks measured in kidney relative to control; format: functional
Mus musculus [14] = assay: Induction of human alpha galactosidase A R301Q mutant activity expressed in C57BL/6 transgenic alpha galactosidase A knockout mouse at 3 mg/kg/day, po administered for 2 weeks measured in heart relative to control; format: functional
Mus musculus [15] = assay: Induction of human alpha galactosidase A R301Q mutant activity expressed in C57BL/6 transgenic alpha galactosidase A knockout mouse at 30 mg/kg/day, po administered for 2 weeks measured in spleen relative to control; format: functional
Mus musculus [16] = assay: Induction of human alpha galactosidase A R301Q mutant activity expressed in C57BL/6 transgenic alpha galactosidase A knockout mouse at 3 mg/kg/day, po administered for 2 weeks measured in liver relative to control; format: functional
[17] = test system: T3, Alpha-galactosidase A (Homo sapiens), P06280 [R301Q]; assay: Induction of alpha galactosidase A R301Q mutant activity in lymphoblasts derived from Fabry disease patient at 100 uM after 4 days relative to control
T3 sequence (whole entry): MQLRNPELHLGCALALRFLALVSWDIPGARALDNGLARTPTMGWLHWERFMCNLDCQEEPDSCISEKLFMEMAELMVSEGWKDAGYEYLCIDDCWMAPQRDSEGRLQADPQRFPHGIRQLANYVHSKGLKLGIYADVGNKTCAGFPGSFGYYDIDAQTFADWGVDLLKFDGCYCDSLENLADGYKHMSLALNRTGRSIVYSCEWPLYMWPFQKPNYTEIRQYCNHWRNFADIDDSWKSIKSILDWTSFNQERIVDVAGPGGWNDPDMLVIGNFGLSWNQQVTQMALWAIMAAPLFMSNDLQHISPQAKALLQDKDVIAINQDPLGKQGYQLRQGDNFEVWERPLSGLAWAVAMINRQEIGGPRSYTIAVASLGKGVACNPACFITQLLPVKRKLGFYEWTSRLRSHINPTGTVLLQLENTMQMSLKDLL

Homo sapiens [18] = species: Homo sapiens; assay: Induction of beta-hexosaminidase S in fibroblasts derived from ISD patient at 10 uM after 5 days by Western blotting analysis relative to control
[19] = biological target: T4, Palmitoyl-protein thioesterase 1 (Homo sapiens, UniProt P50897); assay: Inhibition of PPT1 (unknown origin) in cell lysates using fluorescent-based MUGSP as substrate after 1 to 3 hrs
T4 sequence (P50897 whole entry): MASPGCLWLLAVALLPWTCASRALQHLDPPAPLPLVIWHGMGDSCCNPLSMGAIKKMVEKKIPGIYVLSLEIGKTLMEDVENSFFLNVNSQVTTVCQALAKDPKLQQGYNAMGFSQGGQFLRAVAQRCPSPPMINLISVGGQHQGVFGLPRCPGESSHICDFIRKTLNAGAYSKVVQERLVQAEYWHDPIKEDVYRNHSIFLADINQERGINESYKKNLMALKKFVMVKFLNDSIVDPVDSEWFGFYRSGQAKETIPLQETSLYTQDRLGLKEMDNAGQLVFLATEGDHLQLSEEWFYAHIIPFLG

Beta-galactosidase = biological target: T5, Beta-galactosidase (Homo sapiens, UniProt P16278); assay: Inhibition of human beta galactosidase
T5 sequence (P16278 whole entry): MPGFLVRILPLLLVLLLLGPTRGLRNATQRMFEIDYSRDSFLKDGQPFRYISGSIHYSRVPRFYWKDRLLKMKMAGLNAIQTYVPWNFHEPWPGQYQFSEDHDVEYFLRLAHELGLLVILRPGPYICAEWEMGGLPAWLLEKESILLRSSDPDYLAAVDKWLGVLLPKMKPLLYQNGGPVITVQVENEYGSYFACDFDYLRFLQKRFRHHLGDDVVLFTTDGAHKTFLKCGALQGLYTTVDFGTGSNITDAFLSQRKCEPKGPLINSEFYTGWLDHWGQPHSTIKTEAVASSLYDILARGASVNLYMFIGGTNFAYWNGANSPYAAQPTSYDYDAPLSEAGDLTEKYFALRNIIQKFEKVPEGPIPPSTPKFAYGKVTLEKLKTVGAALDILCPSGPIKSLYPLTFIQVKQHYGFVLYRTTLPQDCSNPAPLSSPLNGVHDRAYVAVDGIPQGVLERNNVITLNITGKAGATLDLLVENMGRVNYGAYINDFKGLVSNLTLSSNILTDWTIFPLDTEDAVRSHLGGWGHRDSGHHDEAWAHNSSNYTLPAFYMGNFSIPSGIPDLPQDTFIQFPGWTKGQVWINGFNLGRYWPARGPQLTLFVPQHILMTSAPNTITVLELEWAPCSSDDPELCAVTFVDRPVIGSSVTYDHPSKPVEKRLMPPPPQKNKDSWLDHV

Homo sapiens [20] = species: Homo sapiens; assay: Induction of beta-hexosaminidase S in fibroblasts derived from ISD patient after 5 days by Western blotting analysis relative to control

Structure (SMILES): CC(=O)N[C@H]1CN(Cc2ccccc2)[C@@H](CO)[C@@H]1O
- Ki [1]: 2.8 µM
- fold change (FC) (Homo sapiens [2]): 2

Structure (SMILES): Cc1[nH]cc2c(=O)n(Cc3ccc(Cl)cc3)ncc12
- fold change (FC) (Homo sapiens [3]): 2.5

Structure (SMILES): O=C(CCCCCN1C[C@H](O)[C@@H](O)[C@H](O)[C@H]1CO)NC12CC3CC(CC(C3)C1)C2
- fold change (FC) [4]: 1.4
- fold change (FC) (Homo sapiens [5]): 2.7

Structure (SMILES): O[C@H]1[C@H](O)[C@@H](O)CN2CC[C@H](O)[C@H]12 [CASTANOSPERMINE]
- IC50 (Beta-glucosidase): 19 µM

Structure (SMILES): OC[C@H]1CNC[C@@H](O)[C@@H]1O [AFEGOSTAT]
- fold change (FC) (Mus musculus [8]): 2

Structure (SMILES): OC[C@H]1NC[C@H](O)[C@@H](O)[C@H]1O
- fold change (FC) (Mus musculus [9]): 1.7
- fold change (FC) (Mus musculus [10]): 7.1
- fold change (FC) (Mus musculus [11]): 2
- fold change (FC) (Mus musculus [12]): 18
- fold change (FC) (Mus musculus [13]): 28
- fold change (FC) (Mus musculus [14]): 4
- fold change (FC) (Mus musculus [15]): 1.8
- fold change (FC) (Mus musculus [16]): 3.1
- fold change (FC) [17]: 14

Structure (SMILES): O=C1c2cccc3cccc(c23)C(=O)N1CCNCCN1C(=O)c2cccc3cccc(c23)C1=O
- fold change (FC) (Homo sapiens [18]): 3

Structure (SMILES): CCCCCCCCN[C@@H]1C=C(CO)[C@H](O)[C@H](O)[C@H]1O
- Ki (Beta-galactosidase): 0.3 µM

Other lines, results leading:

- fold change (FC) [6]: 1.9
Structure (SMILES): OC[C@@H]1[C@@H](O)C(O)[C@@H](O)CN1CCCn1cc(COc2ccccc2)nn1 (single isomer, unassigned)

- fold change (FC) [7]: 1.6
Structure (SMILES): CN(C)c1cccc2c(S(=O)(=O)NCCCCCCN(CCCCCCNS(=O)(=O)c3cccc4c(N(C)C)cccc34)C(=O)CCCCCCN3C[C@H](O)[C@@H](O)[C@H](O)[C@H]3CO)cccc12

- IC50 [19]: 10 µM
Structure (SMILES): CCCCCCCCCCCCCCCC(=O)NC[C@H](NC(=O)CNC(C)=O)C(=O)N[C@H](C(=O)N[C@@H](CCCCN)C(=O)N[C@H](C(=O)N[C@@H](CCCCN)C(=O)N[C@@H](CCCCN)C(=O)O)[C@@H](C)CC)C(C)C (Ac-G[Dap](Palmitoyl)VKIKK-OH)

- fold change (FC) (Homo sapiens [20]): 2
Structure (SMILES): O=C1c2ccccc2/C(=N/O)C1[N+](=O)[O-] (configuration not stated)
